Literature values as cited in patent US20240189229A1, “LIQUID PHARMACEUTICAL COMPOSITIONS OF BACLOFEN FOR ORAL ADMINISTRATION” (ANI Pharmaceuticals, Inc., priority 2022, published 2024).
Where two headings read alike, the source gives them in different places.

- Concentration of baclofen obtained by dissolving (aqueous solution of 0.1N HCl (Ahuja 1985)): greater than 20 mg/mL
- Concentration of baclofen obtained by dissolving (aqueous solution of 0.1N NaOH (Ahuja 1985)): greater than 20 mg/mL
- Solubility in chloroform (chloroform): insoluble
- Solubility in methanol (methanol): very slightly soluble
- Solubility in water (water): slightly soluble
SMILES: NCC(CC(=O)O)c1ccc(Cl)cc1 (centres unmarked) [Baclofen, 4-amino-3-(4-chlorophenyl)-butanoic acid]
